What all share (experiment): ITC, one-site model
Common to all, as to format: binding

In assay [1] the target is T1, TrpR (Escherichia coli, UniProt P0A881).
T1 construct: TrpR without fluorescent proteins, pET21b(+), expressed in E. coli BL21(DE3), NiIMAC and Superdex S75; homodimer; template Trp-CTY / Trp-CTYT sensors (Addgene 13533, 13534)
An excerpt: (§1) ITC, one-site model on TrpR

For assay [2], the target named is T2, TrpR (Escherichia coli, UniProt P0A881, M42F/N87G/S88Y/T44L/T81M).
T2 construct: TrpR without fluorescent proteins, pET21b(+), expressed in E. coli BL21(DE3), NiIMAC and Superdex S75; homodimer; template Trp-CTY / Trp-CTYT sensors (Addgene 13533, 13534)
From the text: as §1

Assay [3] has as its target T3, TrpR (Escherichia coli, UniProt P0A881, N87G/S88Y/T44L/T81M).
T3 construct: TrpR without fluorescent proteins, pET21b(+), expressed in E. coli BL21(DE3), NiIMAC and Superdex S75; homodimer; template Trp-CTY / Trp-CTYT sensors (Addgene 13533, 13534)
From the text: as §1

In assay [4] the target is T4, TrpR (Escherichia coli, UniProt P0A881, S88Y).
T4 construct: TrpR without fluorescent proteins, pET21b(+), expressed in E. coli BL21(DE3), NiIMAC and Superdex S75; homodimer; template Trp-CTY / Trp-CTYT sensors (Addgene 13533, 13534)
From the text: as §1

Assay [5] concerns the target T5, TrpR (Escherichia coli, UniProt P0A881, S88Y/T44L).
T5 construct: TrpR without fluorescent proteins, pET21b(+), expressed in E. coli BL21(DE3), NiIMAC and Superdex S75; homodimer; template Trp-CTY / Trp-CTYT sensors (Addgene 13533, 13534)
From the text: as §1

Assay [6] addresses T6, TrpR (Escherichia coli, UniProt P0A881, S88Y/T44L/T81M).
T6 construct: TrpR without fluorescent proteins, pET21b(+), expressed in E. coli BL21(DE3), NiIMAC and Superdex S75; homodimer; template Trp-CTY / Trp-CTYT sensors (Addgene 13533, 13534)
From the text: as §1

The structures appear in SMILES notation.

Take `O=C(O)Cc1c[nH]c2ccccc12` [IAA]: the equilibrium dissociation constant (Kd) at TrpR [1] was 137.4 ± 0.5 µM; on TrpR [2], 1.5 ± 0.1 µM; at TrpR [3], 1.6 µM; on TrpR [4], 14.6 ± 0.1 µM; at TrpR [5] it was 7.8 ± 0.3 µM; at TrpR [6], 3 ± 0.1 µM.
Regarding `N#CCc1c[nH]c2ccccc12` [IAN], the equilibrium dissociation constant (Kd) stood at 63.7 ± 1.7 µM on TrpR [1]; 14.3 ± 0.4 µM at TrpR [2]; 46.4 ± 1.7 µM at TrpR [3]; 17.9 ± 0.6 µM at TrpR [4]; 19.5 ± 0.6 µM at TrpR [5]; 33.6 ± 0.2 µM at TrpR [6].
`N[C@@H](Cc1c[nH]c2ccccc12)C(=O)O` [TRP] yielded a Kd at TrpR [1] of 25 ± 0.7 µM.

The record behind these values is PMC8081663, “A biosensor for the direct visualization of auxin” (Nature, 2021).
